Each structure is given as a SMILES string.

In one test the test system is male ICR mouse. Put plainly: Acetic acid-induced writhing method. It is filed as in vivo. The procedure:
The effect of the test compound in the writhing test method induced by acetic acid was examined using male ICR mouse (4-week-old). For intraperitoneal administration of the test compound, the test compound was dissolved in saline containing 5% DMSO and 5% Tween 80 to a suitable concentration, and administered at a dose of 5 ml/kg at 30 min before acetic acid administration. For oral administration of the test compound, the test compound was suspended in 0.5% CMC and administered at a dose of 5 ml/kg at 1 hr before acetic acid administration. Acetic acid was diluted with saline to 0.9%, intraperitoneally administered at a dose of 5 ml/kg and, starting 5 min thereafter, the number of writhing responses was counted for 15 min. Saline containing 5% DMSO and 5% Tween 80 was also intraperitoneally administered to the control group (vehicle administration group). As the standard product, indomethacin was used, which was suspended in 0.5% tragacanth gum and orally administered at 90 min before acetic acid administration. 0.5% Tragacanth gum was administered to the control group.
The number of writhing responses by each test compound is shown in FIG. 1 and the number of writhing responses by indomethacin is shown in FIG. 2.

The next test relates to Male ICR mice. The experiment in a line: Mustard oil-induced thermal hyperalgesia model method (hot plate test). The test is classed as in vivo. The note with it: 1.0 mg/kg oral, 1 hr before hot plate test; ICR mouse. On the procedure:
Male ICR mice (5 to 7-week-old) were used. Mustard oil 10% (diluted with distilled water) was subcutaneously injected into both hind paws, and a hot plate test was performed 30 min […] later. The animal was placed on a hot plate and the latency for nociceptive behavior was measured and used as an index. The compound was suspended in 0.5% CMC and orally administered at a dose of 5 ml/kg at 1 hr before the hot plate test. The inhibitory rate was calculated relative to the index measured before administration as 100%.

`O=C(NCCOc1ccc(F)cc1)Nc1ccccc1Br` [Example 1, N-(2-bromophenyl)-N′-[2-(4-fluorophenoxy)ethyl]urea]: the “inhibitory rate (number of writhing responses)” value in the test on male ICR mouse (10 mg/kg intraperitoneal, 30 min before acetic acid) stood at 76%. For `C[C@@H](COc1cccc(Cl)c1)NC(=O)Nc1cccc2cnccc12` [Example 38, N-[(1S)-2-(3-chlorophenoxy)-1-methylethyl]-N′-(isoquinolin-5-yl)urea], in the test with Male ICR mice, the “inhibition rate (latency for nociceptive behavior)” value stood at 57%. As for `COc1ccc2c(c1)c(CC(=O)O)c(C)n2C(=O)c1ccc(Cl)cc1` [indomethacin, reference compound], the “inhibitory rate (number of writhing responses)” value in the test on male ICR mouse (30 mg/kg oral, 90 min before acetic acid) is reported as 56%.
